Measurements published in patent publication US20230265151A1, “GIP/GLP1 CO-AGONIST COMPOUNDS” (priority 2020, published 2023).
Read-outs that look alike come from different tables or passages of the source. *1 amine or outer side, *2 acyl side, *3 side chain or, on linkers, in order; H or OH if unused. Where a SMILES comes first, the peptide text is derived from it. Side-chain parts run from the residue outwards. [ ]: non-standard residue; d: D form. The star is where a group is joined. αMePhe(2-F) = C[C@](N)(Cc1ccccc1F)C(=O)O; γGlu = O=C(O)[C@H](CCC(=O)[*:2])N[*:1]; C14 diacid = O=C(O)CCCCCCCCCCCCC(=O)*; αMeY = C[C@](N)(Cc1ccc(O)cc1)C(=O)O; 4Pal = N[C@@H](Cc1ccncc1)C(=O)O; αMeL = CC(C)C[C@](C)(N)C(=O)O; Orn = NCCC[C@H](N)C(=O)O; AEEA = NCCOCCOCC(=O)O; Aib = CC(C)(N)C(=O)O

Key:
Format in all cases: cell-based
hGIPR = molecular target: T1, hGIPR (Homo sapiens, UniProt P48546); experiment: Functional cAMP formation (HTRF) in HEK-293 clonal cells expressing hGIPR, 0.1% bovine casein, without or with 1.0% human serum albumin; conditions: for Emax: 37° C., read-out: hGIPR Emax, % ± SEM; for EC50: cAMP, incubated at 37° C., 0.1% bovine casein (no human serum albumin), geometric mean, read-out: hGIPR EC50, nM (SEM, n)
T1 construct: expressed in transfected cells
T1 sequence (P48546 22-466): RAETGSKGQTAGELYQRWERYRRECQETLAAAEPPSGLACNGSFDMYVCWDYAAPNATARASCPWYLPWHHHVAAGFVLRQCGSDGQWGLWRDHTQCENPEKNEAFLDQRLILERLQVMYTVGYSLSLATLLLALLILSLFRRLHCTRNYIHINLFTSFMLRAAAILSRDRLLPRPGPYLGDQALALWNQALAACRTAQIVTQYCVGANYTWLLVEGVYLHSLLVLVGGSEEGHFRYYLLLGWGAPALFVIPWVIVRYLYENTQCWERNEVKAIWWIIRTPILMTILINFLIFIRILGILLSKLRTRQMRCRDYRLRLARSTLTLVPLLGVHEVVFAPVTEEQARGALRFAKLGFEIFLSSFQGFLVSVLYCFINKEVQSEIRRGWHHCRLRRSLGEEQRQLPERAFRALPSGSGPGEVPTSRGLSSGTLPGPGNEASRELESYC
How it was run: (§1)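 Cells were stimulated with peptide for 30 min at 37° C, then lysed in buffer carrying cAMP-d2 and anti-cAMP Eu3+-cryptate for a competitive HTRF read after at least 60 min at room temperature. The 665/620 nm ratio was converted to nM cAMP against a standard curve.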

hGCGR = molecular target: T2, hGCGR (Homo sapiens, UniProt P47871); experiment: Functional cAMP formation (HTRF) in HEK-293 clonal cells expressing hGCGR, 0.1% bovine casein, without or with 1.0% human serum albumin; conditions: geometric mean, read-out: hGCGR EC50, nM (SEM, n)
T2 construct: expressed in transfected cells
T2 sequence (P47871 26-477): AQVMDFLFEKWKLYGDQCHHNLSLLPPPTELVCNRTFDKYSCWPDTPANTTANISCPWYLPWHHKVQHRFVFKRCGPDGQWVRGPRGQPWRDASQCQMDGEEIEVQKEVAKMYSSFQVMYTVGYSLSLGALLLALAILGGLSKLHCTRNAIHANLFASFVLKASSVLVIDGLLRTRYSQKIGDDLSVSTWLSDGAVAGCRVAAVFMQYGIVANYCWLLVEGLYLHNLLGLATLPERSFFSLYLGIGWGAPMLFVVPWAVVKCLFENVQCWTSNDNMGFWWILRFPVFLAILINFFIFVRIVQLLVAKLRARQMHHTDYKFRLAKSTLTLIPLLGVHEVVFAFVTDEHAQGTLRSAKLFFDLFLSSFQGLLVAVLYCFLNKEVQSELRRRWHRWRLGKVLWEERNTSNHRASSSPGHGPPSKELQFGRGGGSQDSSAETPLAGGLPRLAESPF
How it was run: as §1

hGLP-1R = hGLP-1R (Homo sapiens, UniProt P43220); experiment: Functional cAMP formation (HTRF) in HEK-293 clonal cells expressing hGLP-1R, 0.1% bovine casein, without or with 1.0% human serum albumin; set-up: expressed in transfected cells; conditions: for EC50: geometric mean, read-out: hGLP-1R EC50, nM (SEM, n); for Emax: read-out: hGLP-1R Emax, % ± SEM
Sequence of hGLP-1R (P43220 24-463): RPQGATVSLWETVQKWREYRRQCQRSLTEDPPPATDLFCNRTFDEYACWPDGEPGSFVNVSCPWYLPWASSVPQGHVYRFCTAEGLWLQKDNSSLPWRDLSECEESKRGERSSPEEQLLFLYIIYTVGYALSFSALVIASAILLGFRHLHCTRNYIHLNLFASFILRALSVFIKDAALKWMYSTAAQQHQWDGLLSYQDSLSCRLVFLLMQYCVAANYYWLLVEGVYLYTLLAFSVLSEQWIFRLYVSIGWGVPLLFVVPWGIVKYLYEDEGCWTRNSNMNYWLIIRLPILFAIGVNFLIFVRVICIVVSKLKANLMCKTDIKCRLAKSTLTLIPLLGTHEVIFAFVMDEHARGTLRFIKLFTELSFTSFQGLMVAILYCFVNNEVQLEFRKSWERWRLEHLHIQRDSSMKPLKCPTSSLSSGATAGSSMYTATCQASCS
How it was run: as §1

[1] = HEK293, 0.1% bovine casein and 1.0% human serum albumin, percent of maximal response to GIP(1-42)NH2
[2] = 0.1% bovine casein and 1.0% human serum albumin, 37° C.
[3] = cAMP, incubated at 37° C., 0.1% bovine casein (no human serum albumin)
[4] = HEK293, 0.1% bovine casein and 1.0% human serum albumin, 37° C., percent of maximal response to GLP-1(7-36)NH2
[5] = HEK293, percent of maximal response to GLP-1(7-36)NH2, 37° C., 0.1% bovine casein, arithmetic mean
[6] = HEK293, percent of maximal response to GIP(1-42)NH2, 0.1% bovine casein, arithmetic mean

SMILES	Emax (hGIPR; [1]) [%]	EC50 (hGIPR) [nM]	EC50 (hGCGR; [2]) [nM]	EC50 (hGCGR; [3]) [nM]	EC50 (hGLP-1R; [2]) [nM]	Emax (hGLP-1R; [4]) [%]	Emax (hGLP-1R; [5]) [%]	EC50 (hGLP-1R; [3]) [nM]	Emax (hGIPR; [6]) [%]
CC[C@H](C)[C@H](NC(=O)[C@H](CCCN)NC(=O)[C@H](CC(=O)O)NC(=O)[C@H](CC(C)C)NC(=O)[C@](C)(CC(C)C)NC(=O)[C@@H](NC(=O)[C@H](CO)NC(=O)[C@H](Cc1ccncc1)NC(=O)[C@H](CC(=O)O)NC(=O)[C@H](CO)NC(=O)[C@@H](NC(=O)[C@](C)(Cc1ccccc1F)NC(=O)[C@@H](NC(=O)CNC(=O)[C@H](CCC(=O)O)NC(=O)C(C)(C)NC(=O)[C@@H](N)Cc1ccc(O)cc1)[C@@H](C)O)[C@@H](C)O)[C@@H](C)CC)C(=O)N[C@@H](C)C(=O)N[C@@H](CCC(N)=O)C(=O)NC(C)(C)C(=O)N[C@@H](CCC(=O)O)C(=O)N[C@@H](Cc1ccccc1)C(=O)N[C@H](C(=O)N[C@@H](CCCCNC(=O)COCCOCCNC(=O)COCCOCCNC(=O)COCCOCCNC(=O)CC[C@H](NC(=O)CCCCCCCCCCCCC(=O)O)C(=O)O)C(=O)N[C@@](C)(Cc1ccc(O)cc1)C(=O)N[C@@H](CC(C)C)C(=O)N[C@H](C(=O)N[C@@H](CCCCNC(=O)COCCOCCNC(=O)COCCOCCNC(=O)COCCOCCNC(=O)CC[C@H](NC(=O)CCCCCCCCCCCCC(=O)O)C(=O)O)C(=O)NCC(=O)NCC(=O)N1CCC[C@H]1C(=O)N[C@@H](CO)C(=O)N[C@@H](CO)C(=O)NCC(=O)N[C@@H](C)C(=O)N1CCC[C@H]1C(=O)N1CCC[C@H]1C(=O)N1CCC[C@H]1C(=O)N[C@@H](CO)C(N)=O)[C@@H](C)CC)[C@@H](C)CC [Example 226]	92.1	0.0232	> 9950	> 9950	11.3	118	–	–	–
CC[C@H](C)[C@H](NC(=O)[C@H](CCCN)NC(=O)[C@H](CC(=O)O)NC(=O)[C@H](CC(C)C)NC(=O)[C@](C)(CC(C)C)NC(=O)[C@@H](NC(=O)[C@H](CO)NC(=O)[C@H](Cc1ccncc1)NC(=O)[C@H](CC(=O)O)NC(=O)[C@H](CO)NC(=O)[C@@H](NC(=O)[C@](C)(Cc1ccccc1F)NC(=O)[C@@H](NC(=O)CNC(=O)[C@H](CCC(=O)O)NC(=O)C(C)(C)NC(=O)[C@@H](N)Cc1ccc(O)cc1)[C@@H](C)O)[C@@H](C)O)[C@@H](C)CC)C(=O)N[C@@H](C)C(=O)N[C@@H](CCC(N)=O)C(=O)NC(C)(C)C(=O)N[C@@H](CCCCNC(=O)COCCOCCNC(=O)COCCOCCNC(=O)COCCOCCNC(=O)CC[C@H](NC(=O)CCCCCCCCCCCCC(=O)O)C(=O)O)C(=O)N[C@@H](Cc1ccccc1)C(=O)N[C@H](C(=O)N[C@H](CCC(=O)O)C(=O)N[C@@](C)(Cc1ccc(O)cc1)C(=O)N[C@@H](CC(C)C)C(=O)N[C@H](C(=O)N[C@@H](CCCCNC(=O)COCCOCCNC(=O)COCCOCCNC(=O)COCCOCCNC(=O)CC[C@H](NC(=O)CCCCCCCCCCCCC(=O)O)C(=O)O)C(=O)NCC(=O)NCC(=O)N1CCC[C@H]1C(=O)N[C@@H](CO)C(=O)N[C@@H](CO)C(=O)NCC(=O)N[C@@H](C)C(=O)N1CCC[C@H]1C(=O)N1CCC[C@H]1C(=O)N1CCC[C@H]1C(=O)N[C@@H](CO)C(N)=O)[C@@H](C)CC)[C@@H](C)CC [Example 227]	76.1	–	> 9950	> 9950	–	111	96.1	1.22	–
CC[C@H](C)[C@H](NC(=O)[C@H](CCCN)NC(=O)[C@H](CC(=O)O)NC(=O)[C@H](CC(C)C)NC(=O)[C@](C)(CC(C)C)NC(=O)[C@@H](NC(=O)[C@H](CO)NC(=O)[C@H](Cc1ccncc1)NC(=O)[C@H](CC(=O)O)NC(=O)[C@H](CO)NC(=O)[C@@H](NC(=O)[C@](C)(Cc1ccccc1F)NC(=O)[C@@H](NC(=O)CNC(=O)[C@H](CCC(=O)O)NC(=O)C(C)(C)NC(=O)[C@@H](N)Cc1ccc(O)cc1)[C@@H](C)O)[C@@H](C)O)[C@@H](C)CC)C(=O)N[C@@H](C)C(=O)N[C@@H](CCC(N)=O)C(=O)NC(C)(C)C(=O)N[C@@H](CCCCNC(=O)COCCOCCNC(=O)COCCOCCNC(=O)COCCOCCNC(=O)CC[C@H](NC(=O)CCCCCCCCCCCCC(=O)O)C(=O)O)C(=O)N[C@@H](Cc1ccccc1)C(=O)N[C@H](C(=O)N[C@H](CCC(=O)O)C(=O)N[C@@](C)(Cc1ccc(O)cc1)C(=O)N[C@@H](CC(C)C)C(=O)N[C@H](C(=O)N[C@@H](CCC(=O)O)C(=O)NCC(=O)NCC(=O)N1CCC[C@H]1C(=O)N[C@@H](CO)C(=O)N[C@@H](CO)C(=O)NCC(=O)N[C@@H](C)C(=O)N1CCC[C@H]1C(=O)N1CCC[C@H]1C(=O)N1CCC[C@H]1C(=O)N[C@@H](CO)C(=O)N[C@@H](CCCCNC(=O)COCCOCCNC(=O)COCCOCCNC(=O)COCCOCCNC(=O)CC[C@H](NC(=O)CCCCCCCCCCCCC(=O)O)C(=O)O)C(N)=O)[C@@H](C)CC)[C@@H](C)CC [Example 228]	83.3	0.0232	> 9950	> 9950	–	119	91.1	1.34	110
CC[C@H](C)[C@H](NC(=O)[C@H](CCCN)NC(=O)[C@H](CC(=O)O)NC(=O)[C@H](CC(C)C)NC(=O)[C@](C)(CC(C)C)NC(=O)[C@@H](NC(=O)[C@H](CO)NC(=O)[C@H](Cc1ccncc1)NC(=O)[C@H](CC(=O)O)NC(=O)[C@H](CO)NC(=O)[C@@H](NC(=O)[C@](C)(Cc1ccccc1F)NC(=O)[C@@H](NC(=O)CNC(=O)[C@H](CCC(=O)O)NC(=O)C(C)(C)NC(=O)[C@@H](N)Cc1ccc(O)cc1)[C@@H](C)O)[C@@H](C)O)[C@@H](C)CC)C(=O)N[C@@H](C)C(=O)N[C@@H](CCC(N)=O)C(=O)NC(C)(C)C(=O)N[C@@H](CCC(=O)O)C(=O)N[C@@H](Cc1ccccc1)C(=O)N[C@H](C(=O)N[C@H](CCC(=O)O)C(=O)N[C@@](C)(Cc1ccc(O)cc1)C(=O)N[C@@H](CC(C)C)C(=O)N[C@H](C(=O)N[C@@H](CCCCNC(=O)COCCOCCNC(=O)COCCOCCNC(=O)COCCOCCNC(=O)CC[C@H](NC(=O)CCCCCCCCCCCCC(=O)O)C(=O)O)C(=O)NCC(=O)NCC(=O)N1CCC[C@H]1C(=O)N[C@@H](CO)C(=O)N[C@@H](CO)C(=O)NCC(=O)N[C@@H](C)C(=O)N1CCC[C@H]1C(=O)N1CCC[C@H]1C(=O)N1CCC[C@H]1C(=O)N[C@@H](CO)C(=O)N[C@@H](CCCCNC(=O)COCCOCCNC(=O)COCCOCCNC(=O)COCCOCCNC(=O)CC[C@H](NC(=O)CCCCCCCCCCCCC(=O)O)C(=O)O)C(N)=O)[C@@H](C)CC)[C@@H](C)CC [Example 229] (H-Y[Aib]EGT[αMePhe(2-F)]TSD[4Pal]SI[αMeL]LD[Orn]IAQ[Aib]EFI[dE][αMeY]LIK([AEEA-AEEA-AEEA-γGlu-C14 diacid])GGPSSGAPPPSK([AEEA-AEEA-AEEA-γGlu-C14 diacid])-NH2)	80.5	0.0253	> 9950	> 9950	–	99	94.3	2.25	–
CC[C@H](C)[C@H](NC(=O)[C@H](CC(C)C)NC(=O)[C@](C)(Cc1ccc(O)cc1)NC(=O)[C@@H](CCC(=O)O)NC(=O)[C@@H](NC(=O)[C@H](Cc1ccccc1)NC(=O)[C@H](CCCCNC(=O)COCCOCCNC(=O)COCCOCCNC(=O)CC[C@H](NC(=O)CCCCCCCCCCCCC(=O)O)C(=O)O)NC(=O)C(C)(C)NC(=O)[C@H](CCC(N)=O)NC(=O)[C@H](C)NC(=O)[C@H](CCCCNC(=O)COCCOCCNC(=O)COCCOCCNC(=O)CC[C@H](NC(=O)CCCCCCCCCCCCC(=O)O)C(=O)O)NC(=O)[C@H](CCCN)NC(=O)[C@H](CC(=O)O)NC(=O)[C@H](CC(C)C)NC(=O)[C@](C)(CC(C)C)NC(=O)[C@@H](NC(=O)C(C)(C)NC(=O)[C@H](Cc1ccc(O)cc1)NC(=O)[C@H](CC(=O)O)NC(=O)[C@H](CO)NC(=O)[C@@H](NC(=O)[C@](C)(Cc1ccccc1F)NC(=O)[C@@H](NC(=O)CNC(=O)[C@H](CCC(=O)O)NC(=O)C(C)(C)NC(=O)[C@@H](N)Cc1ccc(O)cc1)[C@@H](C)O)[C@@H](C)O)[C@@H](C)CC)[C@@H](C)CC)C(=O)N[C@@H](CCC(=O)O)C(=O)NCC(=O)NCC(=O)N1CCC[C@H]1C(=O)N[C@@H](CO)C(=O)N[C@@H](CO)C(=O)NCC(=O)N[C@@H](C)C(=O)N1CCC[C@H]1C(=O)N1CCC[C@H]1C(=O)N1CCC[C@H]1C(=O)N[C@@H](CO)C(N)=O [Example 230]	85.8	0.0199	> 9950	> 9950	–	–	90.3	0.726	105
